# Laboratory results from patent US20020052295A1, “Diacyl derivatives of propylene diamine having herbicidal activity” (priority 1999, published 2002).
# Experiments:
# [1] = tested on: POROL; test: Post-emergence herbicidal activity on POROL (common purslane; table head prints PORAL); format: in vivo, Portulaca oleracea; conditions: post-emergence spray; lowest tested rate with 80% or greater inhibition; about 14 days after treatment
# Source text: (§1) All such uses, and the biological activity enabling such uses, are embraced by the term “herbicidal” herein. Tables 15 and 16 summarize results of tests conducted as described below to determine the pre-emergence herbicidal activity, in the form of a GR80 value, of illustrative compounds of this invention. […] Where herbicidal activity was evident but 80% inhibition was not achieved at the highest rate tested (typically 1000 g/ha), an asterisk (*) is shown in the following tables. Herbicidal activity evident in the form of symptoms of phytotoxicity, in the absence of at least 80% inhibition at any rate, is indicated in the tables by “phyto”. A blank cell in the following tables indicates no herbicidal or phytotoxic response at any rate tested.
# (§2) In another set of tests, the post-emergence activity of compounds of this invention was evaluated on the cool season species listed above. The following procedure was used.
# (§3) A pre-prepared topsoil mixture (described above) was placed in a pot and compacted to a depth of 1.0 to 1.25 cm from the top of the pot. Seeds of each of several monocotyledonous and dicotyledonous annual plant species were placed on top of the soil The seeds were covered with a mixture of 50% topsoil and 50% Rediearth™ in sufficient quantity to level-fill the pots. The pots were then placed on a greenhouse bench and subirrigated as needed until plants growing from the seeds had emerged and reached a suitable growth stage for post-emergence treatment, typically 9 to 14 days after planting.
# (§4) A known amount of each test compound dissolved or suspended in an appropriate organic solvent was diluted with a 50:50 mix of acetone and water and applied to the plants by spraying with a standard spray nozzle in a spray volume of 3,100 l/ha at a spray pressure of […] (30 psig). Control plants were not sprayed.
# (§5) After treatment the plants were placed in a greenhouse with a 30/21° C. day/night temperature regime and were subsequently watered as needed for growth. Approximately 14 days after treatment, the plants were observed and herbicidal efficacy recorded as percent inhibition by comparison with control plants.
# [2] = tested on: ABUTH; test: Post-emergence herbicidal activity on ABUTH (velvetleaf); format: in vivo, Abutilon theophrasti; conditions: post-emergence spray; lowest tested rate with 80% or greater inhibition; about 14 days after treatment
# Source text: as §1, §2, §3, §4, §5
# [3] = tested on: CIRAR; test: Post-emergence herbicidal activity on CIRAR (canada thistle, seedling); format: in vivo, Cirsium arvense; conditions: post-emergence spray; lowest tested rate with 80% or greater inhibition; about 14 days after treatment
# Source text: as §1, §2, §3, §4, §5
# [4] = tested on: BRAPP; test: Post-emergence herbicidal activity on BRAPP (broadleaf signalgrass); format: in vivo, Brachiaria platyphylla; conditions: post-emergence spray; lowest tested rate with 80% or greater inhibition; about 14 days after treatment
# Source text: as §1, §2, §3, §4, §5
# [5] = tested on: CONAR; test: Post-emergence herbicidal activity on CONAR (field bindweed); format: in vivo, Convolvulus arvensis; conditions: post-emergence spray; lowest tested rate with 80% or greater inhibition; about 14 days after treatment
# Source text: as §1, §2, §3, §4, §5
# [6] = tested on: DATST; test: Post-emergence herbicidal activity on DATST (jimsonweed); format: in vivo, Datura stramonium; conditions: post-emergence spray; lowest tested rate with 80% or greater inhibition; about 14 days after treatment
# Source text: as §1, §2, §3, §4, §5
# [7] = tested on: SOLNI; test: Post-emergence herbicidal activity on SOLNI (black nightshade); format: in vivo, Solanum nigrum; conditions: post-emergence spray; lowest tested rate with 80% or greater inhibition; about 14 days after treatment
# Source text: as §1, §2, §3, §4, §5
# [8] = tested on: DIGSA; test: Post-emergence herbicidal activity on DIGSA (large crabgrass); format: in vivo, Digitaria sanguinalis; conditions: post-emergence spray; lowest tested rate with 80% or greater inhibition; about 14 days after treatment
# [9] = tested on: AMARE; test: Post-emergence herbicidal activity on AMARE (redroot pigweed); format: in vivo, Amaranthus retroflexus; conditions: post-emergence spray; lowest tested rate with 80% or greater inhibition; about 14 days after treatment
# Source text: as §1, §2, §3, §4, §5
# [10] = tested on: SORVU; test: Post-emergence herbicidal activity on SORVU (shattercane); format: in vivo, Sorghum vulgare; conditions: post-emergence spray; lowest tested rate with 80% or greater inhibition; about 14 days after treatment
# Source text: as §1, §2, §3, §4, §5
# [11] = tested on: PANMI; test: Post-emergence herbicidal activity on PANMI (wild proso millet); format: in vivo, Panicum miliaceum; conditions: post-emergence spray; lowest tested rate with 80% or greater inhibition; about 14 days after treatment
# [12] = tested on: PANDI; test: Post-emergence herbicidal activity on PANDI (fall panicum); format: in vivo, Panicum dichotomiflorum; conditions: post-emergence spray; lowest tested rate with 80% or greater inhibition; about 14 days after treatment
# Source text: as §1, §2, §3, §4, §5
# [13] = tested on: SORHA; test: Post-emergence herbicidal activity on SORHA (johnsongrass, seedling); format: in vivo, Sorghum halepense; conditions: post-emergence spray; lowest tested rate with 80% or greater inhibition; about 14 days after treatment
# Source text: as §1, §2, §3, §4, §5
# [14] = tested on: CHEAL; test: Post-emergence herbicidal activity on CHEAL (common lambsquarters); format: in vivo, Chenopodium album; conditions: post-emergence spray; lowest tested rate with 80% or greater inhibition; about 14 days after treatment
# Source text: as §1, §2, §3, §4, §5
# [15] = tested on: ECHCG; test: Post-emergence herbicidal activity on ECHCG (barnyardgrass); format: in vivo, Echinochloa crus-galli; conditions: post-emergence spray; lowest tested rate with 80% or greater inhibition; about 14 days after treatment
# Source text: as §1, §2, §3, §4, §5
# [16] = tested on: SORVU; test: Pre-emergence herbicidal activity on SORVU (shattercane); format: in vivo, Sorghum vulgare; conditions: lowest tested rate giving 80% or greater inhibition, approx. 14 days after planting and treating, greenhouse
# How it was run: (§6)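 GR80 values come from percent inhibition relative to untreated plants, rated roughly 14 days after planting and treating, with rates up to typically 1000 g/ha. Compound was sprayed onto the soil over freshly covered seeds as a dilution in 50:50 acetone/water; pots kept in greenhouse at 30/21° C. day/night after 0.64 cm overhead watering.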
# [17] = tested on: SETFA; test: Pre-emergence herbicidal activity on SETFA (giant foxtail); format: in vivo, Setaria faberi; conditions: lowest tested rate giving 80% or greater inhibition, approx. 14 days after planting and treating, greenhouse
# How it was run: as §6
# [18] = tested on: PANMI; test: Pre-emergence herbicidal activity on PANMI (wild proso millet); format: in vivo, Panicum miliaceum; conditions: lowest tested rate giving 80% or greater inhibition, approx. 14 days after planting and treating, greenhouse
# How it was run: as §6
# [19] = tested on: CONAR; test: Pre-emergence herbicidal activity on CONAR (field bindweed); format: in vivo, Convolvulus arvensis; conditions: lowest tested rate giving 80% or greater inhibition, approx. 14 days after planting and treating, greenhouse
# How it was run: as §6
# [20] = tested on: PANDI; test: Pre-emergence herbicidal activity on PANDI (fall panicum); format: in vivo, Panicum dichotomiflorum; conditions: lowest tested rate giving 80% or greater inhibition, approx. 14 days after planting and treating, greenhouse
# How it was run: as §6
# [21] = tested on: DIGSA; test: Pre-emergence herbicidal activity on DIGSA (large crabgrass); format: in vivo, Digitaria sanguinalis; conditions: lowest tested rate giving 80% or greater inhibition, approx. 14 days after planting and treating, greenhouse
# How it was run: as §6
# [22] = tested on: BRAPP; test: Pre-emergence herbicidal activity on BRAPP (broadleaf signalgrass); format: in vivo, Brachiaria platyphylla; conditions: lowest tested rate giving 80% or greater inhibition, approx. 14 days after planting and treating, greenhouse
# How it was run: as §6
# [23] = tested on: ABUTH; test: Pre-emergence herbicidal activity on ABUTH (velvetleaf); format: in vivo, Abutilon theophrasti; conditions: lowest tested rate giving 80% or greater inhibition, approx. 14 days after planting and treating, greenhouse
# How it was run: as §6
# [24] = tested on: POROL; test: Pre-emergence herbicidal activity on POROL (common purslane); format: in vivo, Portulaca oleracea; conditions: lowest tested rate giving 80% or greater inhibition, approx. 14 days after planting and treating, greenhouse
# How it was run: as §6
# [25] = tested on: CIRAR; test: Pre-emergence herbicidal activity on CIRAR (canada thistle, seedling); format: in vivo, Cirsium arvense; conditions: lowest tested rate giving 80% or greater inhibition, approx. 14 days after planting and treating, greenhouse
# How it was run: as §6
# [26] = tested on: AMARE; test: Pre-emergence herbicidal activity on AMARE (redroot pigweed); format: in vivo, Amaranthus retroflexus; conditions: lowest tested rate giving 80% or greater inhibition, approx. 14 days after planting and treating, greenhouse
# How it was run: as §6
# [27] = tested on: SOLNI; test: Pre-emergence herbicidal activity on SOLNI (black nightshade); format: in vivo, Solanum nigrum; conditions: lowest tested rate giving 80% or greater inhibition, approx. 14 days after planting and treating, greenhouse
# How it was run: as §6
# [28] = tested on: ECHCG; test: Pre-emergence herbicidal activity on ECHCG (barnyardgrass); format: in vivo, Echinochloa crus-galli; conditions: lowest tested rate giving 80% or greater inhibition, approx. 14 days after planting and treating, greenhouse
# How it was run: as §6
# [29] = tested on: SORHA; test: Pre-emergence herbicidal activity on SORHA (johnsongrass, seedling); format: in vivo, Sorghum halepense; conditions: lowest tested rate giving 80% or greater inhibition, approx. 14 days after planting and treating, greenhouse
# How it was run: as §6
# [30] = tested on: CHEAL; test: Pre-emergence herbicidal activity on CHEAL (common lambsquarters); format: in vivo, Chenopodium album; conditions: lowest tested rate giving 80% or greater inhibition, approx. 14 days after planting and treating, greenhouse
# How it was run: as §6
# [31] = tested on: DATST; test: Pre-emergence herbicidal activity on DATST (jimsonweed); format: in vivo, Datura stramonium; conditions: lowest tested rate giving 80% or greater inhibition, approx. 14 days after planting and treating, greenhouse
# How it was run: as §6
structure (smiles),measurement,setting,value
"O=C(NCC(CCl)NC(=O)c1cccc(C(F)(F)F)c1)c1cccc(C(F)(F)F)c1 (stereo not drawn) [Example 12, N,N′-(3-chloro-1,2-propanediylbis)-3-(trifluoromethyl)benzamide]",Post-emergence activity (GR80) PORAL,[1],1000 g/ha
same,Post-emergence activity (GR80) ABUTH,[2],[empty]
same,Post-emergence activity (GR80) CIRAR,[3],1000 g/ha
same,Post-emergence activity (GR80) BRAPP,[4],[empty]
same,Post-emergence activity (GR80) CONAR,[5],[empty]
same,Post-emergence activity (GR80) DATST,[6],[empty]
same,Post-emergence activity (GR80) SOLNI,[7],[empty]
same,Post-emergence activity (GR80) DIGSA,[8],[empty]
same,Post-emergence activity (GR80) AMARE,[9],[empty]
same,Post-emergence activity (GR80) SORVU,[10],[empty]
same,Post-emergence activity (GR80) PANMI,[11],[empty]
same,Post-emergence activity (GR80) PANDI,[12],[empty]
same,Post-emergence activity (GR80) SORHA,[13],[empty]
same,Post-emergence activity (GR80) CHEAL,[14],[empty]
same,Post-emergence activity (GR80) ECHCG,[15],[empty]
CC(CNC(=O)c1cccc(C(F)(F)F)c1)NC(=O)c1cccc(F)c1F (stereo not drawn) [Example 34],Pre-emergence activity (GR80) on SORVU,[16],phyto
same,Post-emergence activity (GR80) PORAL,[1],250 g/ha
same,Post-emergence activity (GR80) ABUTH,[2],phyto
same,Post-emergence activity (GR80) CIRAR,[3],1000 g/ha
same,Post-emergence activity (GR80) CONAR,[5],"* (Where herbicidal activity was evident but 80% inhibition was not achieved at the highest rate tested (typically 1000 g/ha), an asterisk (*) is shown)"
same,Pre-emergence activity (GR80) on SETFA,[17],250 g/ha
same,Post-emergence activity (GR80) DATST,[6],750 g/ha
same,Pre-emergence activity (GR80) on PANMI,[18],250 g/ha
same,Pre-emergence activity (GR80) on CONAR,[19],750 g/ha
same,Post-emergence activity (GR80) SOLNI,[7],phyto
same,Post-emergence activity (GR80) AMARE,[9],750 g/ha
same,Pre-emergence activity (GR80) on PANDI,[20],125 g/ha
same,Pre-emergence activity (GR80) on DIGSA,[21],125 g/ha
same,Pre-emergence activity (GR80) on BRAPP,[22],250 g/ha
same,Pre-emergence activity (GR80) on ABUTH,[23],500 g/ha
same,Pre-emergence activity (GR80) on PORAL,[24],125 g/ha
same,Pre-emergence activity (GR80) on CIRAR,[25],125 g/ha
same,Pre-emergence activity (GR80) on AMARE,[26],125 g/ha
same,Pre-emergence activity (GR80) on SOLNI,[27],250 g/ha
same,Pre-emergence activity (GR80) on ECHCG,[28],1000 g/ha
same,Pre-emergence activity (GR80) on SORHA,[29],750 g/ha
same,Pre-emergence activity (GR80) on CHEAL,[30],125 g/ha
same,Post-emergence activity (GR80) CHEAL,[14],"* (Where herbicidal activity was evident but 80% inhibition was not achieved at the highest rate tested (typically 1000 g/ha), an asterisk (*) is shown)"
same,Pre-emergence activity (GR80) on DATST,[31],250 g/ha
